Tests used:
BMP2 promoter = test: BMP-2 promoter luciferase reporter high throughput screening in 2T3-BMP-2-LUC cells; assay type: cell-based, mouse; settings: at concentration of maximal activity, about 3 μM
Excerpt: A rapid throughput screening test for compounds capable of stimulating expression of a reporter gene linked to a BMP promoter (a surrogate for the production of bone morphogenetic factors that are endogenously produced) is described in U.S. application Ser. No. 08/458,434, filed Jun. 2, 1995, the entire contents of which are incorporated herein by reference. This assay is also described as a portion of a study of immortalized murine osteoblasts (derived from a mouse expressing a transgene composed of a BMP2 promoter driving expression of T-antigen) in Ghosh-Choudhery, N. et al. Endocrinology (1996) 137:331-39. […]
Briefly, the assay utilizes cells transformed permanently or transiently with constructs in which the promoter of a bone morphogenetic protein, specifically BMP2 or BMP4, is coupled to a reporter gene, typically luciferase. These transformed cells are then evaluated for the production of the reporter gene product; compounds that activate the BMP promoter will drive production of the reporter protein, which can be readily assayed. […]
The treated cells were incubated for 24 hours at 37° C. and 5% CO2. […] Luminescence was measured on an automated 96-well luminometer, and was expressed as either picograms of luciferase activity per well or as picograms of luciferase activity per microgram of protein. […]

TMC-23 cells = test: Alkaline phosphatase (ALP) activity in chondrogenic cell line TMC-23; assay type: cell-based, mouse; settings: day 2, 10^-9 M, compared to vehicle control
Protocol: For measurement of alkaline phosphatase (ALP) activity, the technique of LF Bonewald et al. J Biol Chem (1992) 267:8943-49, was employed. Briefly, TMC-23 cells were plated in 96 well microtiter plates in DMEM containing 10% FCS at 4×10^3 cells/well. Two days after plating, the cells were confluent and the medium was replaced with fresh medium containing 10% FCS and different concentrations of compounds or recombinant BMP-2. After an additional 2 or 5 days incubation, the plates were washed twice with PBS, and then lysing solution (0.05% Triton X-100) was added (100 μl/well). The cells were lysed by three freeze-thaw cycles of −70° C. (30 min), followed by 37° C. (30 min with shaking). Twenty microliters of cell lysates were assayed with 80 μl of 5 mM p-nitrophenol phosphate in 1.5 M 2-amino-2-methyl-propanol buffer, pH 10.3 (Sigma ALP kit, Sigma Chemical Co., St. Louis, Mo.) for 10 min at 37° C. The reaction was stopped by the addition of 100 μl of 0.5 M NaOH. The spectrophotometric absorbance at 405 nm was compared to that of p-nitrophenol standards to estimate ALP activity in the samples. The protein content of the cell lysates was determined by the Bio-Rad protein assay kit (Bio-Rad, Hercules, Calif.). Specific activity was calculated using these two parameters.

ICR Swiss white mice = test: In vivo assay of effects of compounds on murine calvarial bone growth; set-up: species or system mouse; settings: compared to vehicle control; subcutaneous injection over right calvaria, day 14
Protocol: Male ICR Swiss white mice, aged 4-6 weeks and weighing 13-26 gm, are employed, using 4-5 mice per group. The calvarial bone growth assay is performed as described in PCT application WO 95/24211, incorporated by reference. Briefly, the test compound or appropriate control vehicle is injected into the subcutaneous tissue over the right calvaria of normal mice. Typically, the control vehicle is the vehicle in which the compound was solubilzed, and is PBS containing 5% DMSO or is PBS containing Tween (2 μl/10 ml). The animals are sacrificed on day 14 and bone growth measured by histomorphometry. Bone samples for quantitation are cleaned from adjacent tissues and fixed in 10% buffered formalin for 24-48 hours, decalcified in 14% EDTA for 1-3 weeks, processed through graded alcohols, and embedded in paraffin wax. Three to five μm sections of the calvaria are prepared, and representative sections are selected for histomorphometric assessment of the effects on bone formation and bone resorption. Sections are measured by using a camera lucida attachment to trace directly the microscopic image onto a digitizing plate. Bone changes are measured on sections cut 200 μm apart, over 4 adjacent 1×1 mm fields on both the injected and noninjected sides of the calvaria. […]

Compound: c1ccc(N=NC2=NNc3ccccc3S2)cc1 [Compound 59-0008, 3-phenylazo-1H-4,1,2-benzothiadiazine]
- response (luciferase luminescence) (BMP2 promoter): approximately 175 light emission units
- increase of ALP levels (TMC-23 cells): approximately 3 fold
- increase in width of new calvarial bone (ICR Swiss white mice): 4 fold
